Test results from patent US20110009335A1, “Anticancer Treatments” (priority 2008, published 2011).
Starred links: 1 amine or outer side, 2 acyl side, 3 side chain; linkers in the order of their positions; H or OH if unused. Positions of bridges follow the written chain, without caps; N, C: chain ends. Non-standard residues stand in square brackets, D forms with d. Residues, ends and D or L forms follow the SMILES beside them. *: point of attachment. X1 = CC[C@H](C)[C@@H](N[*:1])[C@@H](O)CC(=O)O[C@H](C(=O)[C@H](C)C(=O)[*:2])C(C)C; NMeY = CN[C@@H](Cc1ccc(O)cc1)C(=O)O; dNMeL = CN[C@H](CC(C)C)C(=O)O; Pyruvoyl = CC(=O)C(=O)*

Columns and labels:
[1] = system: A498 human renal tumor xenograft; test: Aplidine with sorafenib, A498 xenograft in athymic nude mice (Example 1); format: in vivo
Procedure: Female athymic nude mice (Harlan Sprague Dawley, Madison, Wis.) were utilized for all experiments. Mice were implanted with tumor fragments or a cell suspension when mice were 5 weeks of age. Animals were housed in ventilated rack caging, 5 mice per cage, with food and water ad libitum. The mice were acclimated for 1 week prior to being implanted with tumor fragments or cell suspensions.
A498 cells were grown in MEM, 2 mM L-glutamine and 10% FBS. Cells from in vitro passage 4-20 were implanted SC into study mice: 5×10^6 cells/mouse in 0.2 ml 50% Matrigel/50% medium without antibiotics or serum, using a 23 G needle and 1 cc syringe. Matrigel is a biological extracellular matrix that is liquid at 4° C. and solid at 37° C., and it promotes tumor growth by maintaining the cells in close association in a localized area. Bacterial cultures were performed on aliquots of the cells prepared for implantation.
Tumor measurements were determined by using Vernier calipers. The formula to calculate volume for a prolate ellipsoid was used to estimate tumor volume (mm^3) from 2-dimensional tumor measurements: Tumor volume (mm^3)=[L×W^2]÷2, where L is the length and it is the longest diameter in mm, and W is the width and it is the shortest diameter in mm of a tumor. Assuming unit density, volume was converted to weight (i.e., 1 mm^3=1 mg).
(§1) Body weights were recorded on treatment days and when tumor sizes were measured. In those days wherein the two drugs were administered the same day, the combination therapy groups were treated by co-administering the two drugs at the same time, with no attempt to sequence the treatments.
(§2) Aplidine was provided in the form of vials of lyophilized aplidine powder which was reconstituted in Cremophor EL/ethanol/water (CEW) 15/15/70 to a concentration of 0.5 mg/ml. Then the aplidine solution in CEW was diluted in 0.9% Saline to the dosing formulation concentrations, being the final proportion of CEW of 0.18/0.18/0.84.
(§3) Tumor size measurements were recorded twice weekly from the treatment initiation until the termination of the study.
(§4) Mean, standard deviation and standard error of the mean were determined for tumor volume for all animal groups at all assessments. Student's t test was performed on tumor volumes at each measurement day, including at the end of the study, to determine whether there were any statistically significant differences between combination treatment groups and single monotherapy treatment groups.
Determine the % of tumor growth inhibition, as 100−% T/C, for each of the drugs administered as monotherapy at the doses used in the combinations. % T/C was obtained by comparing the mean tumor weight in the treatment groups (T) to the mean tumor weight in the control group (C) (T/C×100%). • 2. The two scores were added together to determine the “expected response” if each agent produced the same response as it did when administered as monotherapy. • 3. This “expected response” was subtracted from the % of tumor growth inhibition determined for the combination therapy group: • a. A negative number meant that the effect of combining the two drugs was less than additive. • b. If the resulting number was close to zero, the effect of combining the two drugs was determined as additive. • c.

[2] = system: HepG2 human hepatoma xenograft; test: Aplidine with sorafenib, HepG2 xenograft in athymic nude mice (Example 6); format: in vivo; conditions: for antitumor activity as single agent (monotherapy): doses tested; for % Inhibition G4: sorafenib 30 mg/kg/day; for % Inhibition G3: sorafenib 60 mg/kg/day; for % Inhibition G2: aplidine 0.06 mg/kg/day
Procedure: Female athymic nude mice (Harlan Sprague Dawley, Madison, Wis.) were utilized for all experiments. Mice were implanted with a cell suspension when mice were 6-8 weeks of age. Animals were housed in ventilated rack caging with food and water ad libitum. The mice were acclimated for at least 5 days prior to tumor implantation.
The tumor model used in this study was HepG2, which is a human hepatoma cell line obtained from the ATCC (Manassas, Va.). HepG2 cells were grown in MEM medium, 10% FBS, 1.5 g/l sodium bicarbonate, 0.1 mM non-essential amino acids, 1.0 mM sodium pyruvate and 2 mM L-glutamine. Cells from in vitro passage 4-20 were implanted SC into study mice: 5×10^6 cells/mouse in 0.2 ml 50% Matrigel/50% medium without antibiotics or serum, using a 23 G needle and 1 cc syringe. Bacterial cultures were performed on aliquots of the cells prepared for implantation.
Tumor measurements were determined as disclosed in Example 1. When tumor growth was within an average size range of 130±44 mg (mean±SD), mice were randomized into the treatment and control groups based on tumor weight by using LabCat® In Life module V 8.0 SP1 tumor tracking and measurement software.
as §1, with “The treatment of HepG2-tumor-bearing mice was initiated on DPI (Day Post Implantation) 19. Body” for “Body”
as §2, with “The” for “Then the”
as §3, §4
The definition and criteria for the evaluation of potentiation and the degree of additivity for the combination therapy were the same as those disclose in Example 1.

[3] = aplidine 0.040 and/or sorafenib 30 mg/kg/day
[4] = aplidine 0.060 and/or sorafenib 60 mg/kg/day
[5] = G2: aplidine 0.060 mg/kg/day IP

SMILES	% T/C on day 26 [1, 3] [%]	% T/C on day 29 [1, 3] [%]	% T/C on day 33 [1, 3] [%]	% T/C on day 36 [1, 3] [%]	% T/C on day 40 [1, 3] [%]	% T/C on day 43 [1, 3] [%]	% T/C on day 47 [1, 3] [%]	% T/C on day 50 [1, 3] [%]	% T/C on day 54 [1, 3] [%]	% T/C on day 61 [1, 3] [%]	% T/C on day 26 [1, 4] [%]	% T/C on day 29 [1, 4] [%]	% T/C on day 33 [1, 4] [%]	% T/C on day 36 [1, 4] [%]	% T/C on day 40 [1, 4] [%]	% T/C on day 43 [1, 4] [%]	% T/C on day 47 [1, 4] [%]	% T/C on day 50 [1, 4] [%]	% T/C on day 54 [1, 4] [%]	% T/C on day 61 [1, 4] [%]	further results
CNC(=O)c1cc(Oc2ccc(NC(=O)Nc3ccc(Cl)c(C(F)(F)F)c3)cc2)ccn1 [sorafenib]	97.0	97.4	76.6	84.2	98.7	70.1	91.2	85.9	105.9	89.6	97.4	87.8	80.2	68.6	82.9	51.4	74.9	71.1	78.7	81.3	% T/C on day 19 ([2]; G3: sorafenib 60 mg/kg/day PO): 88.8%; % T/C on day 22 ([2]; G3: sorafenib 60 mg/kg/day PO): 78.7%; % T/C on day 26 ([2]; G3: sorafenib 60 mg/kg/day PO): 60.1%; % T/C on day 30 ([2]; G3: sorafenib 60 mg/kg/day PO): 61.8%; % T/C on day 33 ([2]; G3: sorafenib 60 mg/kg/day PO): 66.2%; % T/C on day 19 ([2]; G4: sorafenib 30 mg/kg/day PO): 101.4%; % T/C on day 22 ([2]; G4: sorafenib 30 mg/kg/day PO): 123.5%; % T/C on day 26 ([2]; G4: sorafenib 30 mg/kg/day PO): 91.3%; % T/C on day 30 ([2]; G4: sorafenib 30 mg/kg/day PO): 100.9%; antitumor activity as single agent (monotherapy) [2]: inactive; % Inhibition G4 ([2]; day 22): −23.5%; % Inhibition G4 ([2]; day 26): 8.7%; % Inhibition G4 ([2]; day 30): −0.9%; % Inhibition G4 ([2]; day 33): 9.6%; % Inhibition G3 ([2]; day 19): 11.2%; % Inhibition G3 ([2]; day 26): 39.9%; % Inhibition G3 ([2]; day 30): 38.2%; % Inhibition G3 ([2]; day 33): 33.8%
CC[C@H](C)[C@H]1NC(=O)[C@@H](NC(=O)[C@@H](CC(C)C)N(C)C(=O)[C@@H]2CCCN2C(=O)C(C)=O)[C@@H](C)OC(=O)[C@H](Cc2ccc(OC)cc2)N(C)C(=O)[C@@H]2CCCN2C(=O)[C@H](CC(C)C)NC(=O)[C@@H](C)C(=O)[C@H](C(C)C)OC(=O)C[C@@H]1O [aplidine, dehydrodidemnin B] (Pyruvoyl-P[dNMeL]T[X1]LP[NMeY](Me); ester 3-C)	100.8	84.6	78.7	74.8	90.2	65.1	89.8	71.5	86.7	89.5	96.8	72.3	71.0	77.0	85.3	78.6	86.5	82.6	90.9	87.8	antitumor activity as single agent (monotherapy) ([1]; doses and schedules tested): did not reach the NCI criteria for activity; % T/C on day 19 [2, 5]: 95.9%; % T/C on day 22 [2, 5]: 97.0%; % T/C on day 26 [2, 5]: 66.7%; % T/C on day 30 [2, 5]: 76.9%; % T/C on day 33 [2, 5]: 91.0%; % Inhibition G2 ([2]; day 19): 4.1%; % Inhibition G2 ([2]; day 22): 3.0%; % Inhibition G2 ([2]; day 26): 33.3%; % Inhibition G2 ([2]; day 30): 23.1%; % Inhibition G2 ([2]; day 33): 9.0%; antitumor activity as single agent (monotherapy) [2]: inactive
